Source: ChEMBL document CHEMBL1201862, “PubChem BioAssay data set” (2004)
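Growth conditions: 96-well plates. Treatment: test compound, 48 hours, 5 concentrations. Analysis: linear interpolation between bracketing concentrations; unreached endpoints set to highest concentration. The concentration for 50% growth inhibition is given as GI50.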 Activity calls are given as the source filed them. Cut-off read from the data, not from the text of the source: active = GI50 up to about 1.1 µM and inactive = higher.

Tests used:
Assay in all cases: inhibition of tumour cell growth, NCI panel, 48 h
SF-539 = test system: SF-539
SNB-19 = test system: SNB-19
SNB-75 = test system: SNB-75
SF-295 = test system: SF-295
SN12C = test system: SN12C
ACHN = test system: ACHN
CAKI-1 = test system: CAKI-1
HL-60 = test system: HL-60
HCC 2998 = test system: HCC 2998
TK-10 = test system: TK-10
HOP-62 = test system: HOP-62
HCT-15 = test system: HCT-15
LOX IMVI = test system: LOX IMVI
MDA-MB-231 = test system: MDA-MB-231
PC-3 = test system: PC-3
SK-MEL-28 = test system: SK-MEL-28
SK-MEL-2 = test system: SK-MEL-2
OVCAR-3 = test system: OVCAR-3
OVCAR-5 = test system: OVCAR-5
A549 = test system: A549
IGROV-1 = test system: IGROV-1
MDA-N = test system: MDA-N
Malme-3M = test system: Malme-3M
UACC-257 = test system: UACC-257
OVCAR-8 = test system: OVCAR-8
SR = test system: SR
M14 = test system: M14
T47D = test system: T47D
NCI/ADR-RES = test system: NCI/ADR-RES
SK-MEL-5 = test system: SK-MEL-5
HCT-116 = test system: HCT-116
SK-OV-3 = test system: SK-OV-3
786-0 = test system: 786-0
OVCAR-4 = test system: OVCAR-4
MCF7 = test system: MCF7
EKVX = test system: EKVX
UACC-62 = test system: UACC-62
MOLT-4 = test system: MOLT-4
NCI-H226 = test system: NCI-H226
BT-549 = test system: BT-549
MDA-MB-435 = test system: MDA-MB-435
HT-29 = test system: HT-29
K562 = test system: K562
U-251 = test system: U-251
NCI-H522 = test system: NCI-H522
KM12 = test system: KM12
COLO 205 = test system: COLO 205
UO-31 = test system: UO-31
A498 = test system: A498
CCRF-CEM = test system: CCRF-CEM
RPMI-8226 = test system: RPMI-8226
SW-620 = test system: SW-620
NCI-H23 = test system: NCI-H23
DU-145 = test system: DU-145
RXF 393 = test system: RXF 393
NCI-H460 = test system: NCI-H460
HOP-92 = test system: HOP-92

NNC1=N/C(=C\c2ccco2)C(=O)N1
GI50 (SF-539): > 100 µM (inactive)
GI50 (SNB-19): > 100 µM (inactive)
GI50 (SNB-75): > 100 µM (inactive)
GI50 (SF-295): > 100 µM (inactive)
GI50 (SN12C): > 100 µM (inactive)
GI50 (ACHN): 47.5 µM (inactive)
GI50 (CAKI-1): > 100 µM (inactive)
GI50 (HL-60): > 100 µM (inactive)
GI50 (HCC 2998): 44.3 µM (inactive)
GI50 (TK-10): > 100 µM (inactive)
GI50 (HOP-62): > 100 µM (inactive)
GI50 (HCT-15): 58.3 µM
GI50 (LOX IMVI): 60.1 µM (inactive)
GI50 (MDA-MB-231): > 100 µM (inactive)
GI50 (PC-3): 28.8 µM (inactive)
GI50 (SK-MEL-28): > 100 µM (inactive)
GI50 (SK-MEL-2): > 100 µM (inactive)
GI50 (OVCAR-3): > 100 µM (inactive)
GI50 (OVCAR-5): > 100 µM (inactive)
GI50 (A549): 80.9 µM (inactive)
GI50 (IGROV-1): 65.2 µM (inactive)
GI50 (MDA-N): > 100 µM (inactive)
GI50 (Malme-3M): > 100 µM (inactive)
GI50 (UACC-257): > 100 µM (inactive)
GI50 (OVCAR-8): > 100 µM (inactive)
GI50 (SR): > 100 µM (inactive)
GI50 (M14): > 100 µM (inactive)
GI50 (T47D): > 100 µM (inactive)
GI50 (NCI/ADR-RES): > 100 µM (inactive)
GI50 (SK-MEL-5): > 100 µM (inactive)
GI50 (HCT-116): > 100 µM (inactive)
GI50 (SK-OV-3): > 100 µM (inactive)
GI50 (786-0): > 100 µM (inactive)
GI50 (OVCAR-4): > 100 µM (inactive)
GI50 (MCF7): > 100 µM (inactive)
GI50 (EKVX): > 100 µM (inactive)
GI50 (UACC-62): 33 µM (inactive)
GI50 (MOLT-4): 64.7 µM (inactive)
GI50 (NCI-H226): > 100 µM (inactive)
GI50 (BT-549): 40.6 µM (inactive)
GI50 (MDA-MB-435): > 100 µM (inactive)
GI50 (HT-29): > 100 µM (inactive)
GI50 (K562): 93.3 µM (inactive)
GI50 (U-251): 91.8 µM (inactive)
GI50 (NCI-H522): 50.6 µM (inactive)
GI50 (KM12): > 100 µM (inactive)
GI50 (COLO 205): > 100 µM (inactive)
GI50 (UO-31): 59.4 µM (inactive)
GI50 (A498): > 100 µM (inactive)
GI50 (CCRF-CEM): > 10 µM (inactive)
GI50 (RPMI-8226): 57.3 µM (inactive)
GI50 (SW-620): > 100 µM (inactive)
GI50 (NCI-H23): > 100 µM (inactive)

C[C@@H](O)C(=O)N1[C@@H]2CC3CC[C@]2(CS1(=O)=O)C3(C)C
GI50 (SF-539): 48.9 µM (inactive)
GI50 (DU-145): 88.1 µM (inactive)
GI50 (SNB-19): 65.8 µM (inactive)
GI50 (RXF 393): > 100 µM (inactive)
GI50 (SNB-75): > 100 µM (inactive)
GI50 (SF-295): > 100 µM (inactive)
GI50 (SN12C): 55.5 µM (inactive)
GI50 (ACHN): 64.1 µM (inactive)
GI50 (CAKI-1): > 100 µM (inactive)
GI50 (HL-60): 28.9 µM (inactive)
GI50 (HCC 2998): 49.1 µM (inactive)
GI50 (TK-10): > 100 µM (inactive)
GI50 (HOP-62): > 100 µM (inactive)
GI50 (HCT-15): 56.6 µM
GI50 (NCI-H460): 85.9 µM (inactive)
GI50 (LOX IMVI): > 100 µM (inactive)
GI50 (MDA-MB-231): > 100 µM (inactive)
GI50 (PC-3): 96.8 µM (inactive)
GI50 (SK-MEL-28): 76.2 µM (inactive)
GI50 (SK-MEL-2): > 100 µM (inactive)
GI50 (OVCAR-3): > 100 µM (inactive)
GI50 (OVCAR-5): > 100 µM (inactive)
GI50 (A549): 95.1 µM (inactive)
GI50 (IGROV-1): > 100 µM (inactive)
GI50 (UACC-257): > 100 µM (inactive)
GI50 (OVCAR-8): > 100 µM (inactive)
GI50 (HOP-92): 66.1 µM (inactive)
GI50 (SR): 18 µM (inactive)
GI50 (M14): 93.5 µM (inactive)
GI50 (T47D): > 100 µM (inactive)
GI50 (NCI/ADR-RES): > 100 µM (inactive)
GI50 (SK-MEL-5): 49.2 µM (inactive)
GI50 (HCT-116): 67.8 µM (inactive)
GI50 (SK-OV-3): > 100 µM (inactive)
GI50 (786-0): 52.8 µM (inactive)
GI50 (OVCAR-4): 85.9 µM (inactive)
GI50 (MCF7): > 100 µM (inactive)
GI50 (EKVX): 89.7 µM (inactive)
GI50 (UACC-62): > 100 µM (inactive)
GI50 (MOLT-4): 31.1 µM (inactive)
GI50 (NCI-H226): 23.2 µM (inactive)
GI50 (BT-549): > 100 µM (inactive)
GI50 (MDA-MB-435): 63.8 µM (inactive)
GI50 (HT-29): > 100 µM (inactive)
GI50 (K562): 68.1 µM (inactive)
GI50 (U-251): 52.1 µM (inactive)
GI50 (KM12): 82.2 µM (inactive)
GI50 (COLO 205): 79.3 µM (inactive)
GI50 (UO-31): > 100 µM (inactive)
GI50 (CCRF-CEM): 24.2 µM (inactive)
GI50 (RPMI-8226): 39.7 µM (inactive)
GI50 (SW-620): 28.1 µM (inactive)
GI50 (NCI-H23): 62.2 µM (inactive)
